Measurements taken from US8410130B2, “Synthesis of 8H-3A-aza-cyclopenta [A ]indenes and 5,10-dihydropyrrolo[1,2-B]isoquinolines derivatives and their use as antitumor therapeutic agents” (Academia Sinica, priority 2007, dated 2013).
Where two headings read alike, the source gives them in different places.

Legend:
[1] = test system: human mammary carcinoma MX-1 xenograft; test: Therapeutic effect in nude mice bearing MX-1 xenograft; type: in vivo; details: intravenous injection
Protocol: FIGS. 2A-B illustrates the therapeutic effect of DA-1090, 1099, 1124, 1012 and 1107 in nude mice bearing human mammary carcinoma MX-1 xenograft (i.v. inj, n=3-4), average tumor size changes (FIG. 2A) and average body weight changes (FIG. 2B).
Athymic nude mice bearing the nu/nu gene were obtained from NCI, Frederick, Md. and used for all human tumor xenografts. Male nude mice, 6 weeks or older, weighing 20-24 g or more were used. Compounds were administered via the tail vein for i.v. injection or infusion as described previously (Chou T-C et al., Proc. Natl. Acad. Sci. USA 2001, 98, 8113-8118). Various formulations were prepared for injections into the mice for chemotherapeutic studies. As an example, a drug was dissolved in DSMO to make a 25 mg/ml fresh solution, 0.4 ml of this solution was mixed with 0.3 ml of Tween 80, plus 1.3 ml to make 2 ml of 5 mg/ml solution. Bolus injection volume was 0.1-0.2 ml per mouse.
Athymic nude mice bearing the nu/nu gene were used for human breast tumor MX-1 xenograft (FIGS. 2, 2A and 2B). Nude mice were obtained from National Cancer Institute, Frederick, Md. Male mice, 6 weeks old or older, weighing 22 g or more were used for experiments with subcutaneous tumor inoculation as described previously (Chou T-C, Pharmacol. Rev. 2006, 58, 621-681). Drug was administrated via the tail vein by iv injection. Tumor volumes were assessed by measuring length×width×height (or width) by using caliper. An example of vehicle used was 20 μL DMSO in 180 μL saline. All animal studies were conducted in accordance with the guidelines of the U.S. National Institutes of Health Guide for the Care and Use of Animals and the protocol approved by the Institutional Animal Care and Use Committee.

[2] = test system: CCRF-CEM/Taxol; test: In vitro cytotoxicity, XTT assay, taxol resistant subline; type: cell-based, human; details: for IC50: XTT assay, 72-hr incubation; for fold of cross-resistant, CCRF-CEM/Taxol vs IC50 of the parent cell line: numbers in brackets
Description: (§1) Human colon carcinoma HCT-116 cells, human prostate adenocarcinoma PC-3 and adenocarcinoma SK-OV-3 cells were obtained from American Type Culture Collection (ATCC, Rockville, Md.). Human mammary carcinoma (MX-1) tumor cells were obtained from MSKCC cell bank. The CCRF-CEM human lymphoblastic leukemia cells and their vinblastine resistant subline (CCRF-CEM/VBL, 680-fold resistance in vitro) were obtained from Dr. William Beck of the University of Illinois, Chicago, and CCRF-CEM/Taxol (330-fold resistance in vitro). Resistant cells CCRF-CEM/taxol were produced by exposing the parent cells to increasing sublethal concentration (IC50-IC90) of paclitaxel for six months.
(§2) In preparation for in vitro cytotoxicity assays, cells were cultured at an initial density 2-5×10^4 cells per milliliter. They were maintained in a 5% CO2-humidified atmosphere at 37° C. in RPMI medium 1640 (GIBCO/BRL) containing penicillin (100 units/mL), streptomycin (100 μg/mL, GIBCO/BRL), and 5% heat-inactivated FBS. For cells grown in suspension (such as CCRF-CEM and its sublines), cytotoxicity was measured, by using XTT microculture method in 96-well microtiter plates (Scudiero D A et al., Cancer Res. 1988, 48, 4827-4833). For solid tumor cells growing in a monolayer (such as MX-1 and HCT-116), cytotoxicity of the drug was determined, in duplicate, in 96-well microtiter plates by using the sulforhodamine B method (Skehan P et al., J. Natl. Cancer Inst 1990, 82, 1107-1112). For both methods, the absorbance of each well was measured with a microplate reader (Power Wave XS, Bio-Tek, Winooski, Vt.) after 72-hr incubation as described previously (Chou T-C et al., Proc. Natl. Acad. Sci. USA 2001, 98, 8113-8118). Dose-effect relationship data from 6 to 7 concentrations of each drug, in duplicate, were analyzed by using a computer program (Chou T-C et al., ComboSyn, Inc., Paramus, N J. 2005) based on the median-effect principle and plot (Chou T-C et al., Adv. Enzyme Regul. 1984, 22, 27-55; Chou T-C, Pharmacol. Rev. 2006, 58, 621-681).
(§3) The IC50 is defined by the concentration required to inhibit tumor cell growth by 50%. […] The growth inhibition of the compounds disclosed herein against human lymphoblastic leukemic cells (CCRF-CEM) and its drug-resistant sublines (resistant to vinblastine and taxol, CCRF-CEM/VBL and CCRF-CEM/taxol, respectively) is also shown in Table 5. […] Thus, the compounds disclosed herein are effective against multiple drug resistant tumors.

[3] = test system: CCRF-CEM human lymphoblastic leukemia cells; test: In vitro cytotoxicity, XTT assay, 72-hr incubation; type: cell-based
Description: as §1, §2, §3

[4] = test system: Human mammary carcinoma (MX-1) tumor cells; test: In vitro cytotoxicity, sulforhodamine B (SRB) assay; type: cell-based; details: 72-hr incubation
Description: as §1, §2, §3

[5] = test system: Human colon carcinoma HCT-116 cells; test: as above; type: cell-based
Description: as §1, §2, §3

[6] = test system: CCRF-CEM/VBL; test: In vitro cytotoxicity, XTT assay, vinblastine resistant subline; type: cell-based, human; details: for IC50: XTT assay, 72-hr incubation; for fold of cross-resistant, CCRF-CEM/VBL vs IC50 of the parent cell line: numbers in brackets
Description: as §1, §2, §3

[7] = Homo sapiens, HCT-116, 72-hr incubation
[8] = 15 mg/kg, every other two days (Q2D), two times

Compound | antitumor therapeutic effect (tumor size) ([1]; 5 mg/kg, daily (QD) 3 times) | toxicity ([1]; 5 mg/kg, daily (QD) 3 times) | IC50 ([2]; Homo sapiens, CCRF-CEM) | fold of cross-resistant, CCRF-CEM/Taxol vs IC50 of the parent cell line [2] | IC50 ([3]; Homo sapiens, CCRF-CEM) | IC50 ([4]; Homo sapiens) | IC50 [5, 7] | IC50 ([6]; Homo sapiens, CCRF-CEM) | fold of cross-resistant, CCRF-CEM/VBL vs IC50 of the parent cell line [6] | antitumor therapeutic effect (tumor size) [1, 8] | toxicity [1, 8] | IC50 [2] | IC50 [3] | IC50 [4] | IC50 ([5]; 72-hr incubation) | IC50 [6]
CNC(=O)OCc1c(COC(=O)NC)c(-c2ccc(OC)cc2)n2c1Cc1ccccc1-2 [DA-1012, Methylcarbamic acid 3-(4-methoxy-phenyl)-2-methylcarbamoyloxymethyl-8H-3a-azacyclopenta[a]inden-1-ylmethyl ester] | tumor total disappearance | low toxicity | 0.058 µM | [1.2x] | 0.049 µM | 1.94 µM | 2.75 µM | 0.07 µM | [1.4x] |  |  |  |  |  |  | 
COc1cccc(OC)c1-c1c(CO)c(CO)c2n1-c1ccccc1C2 [DA-1126, (3-(2,6-Dimethoxyphenyl)-2-hydroxymethyl-8H-3a-aza-cyclopenta[a]inden-1-yl)methanol] |  |  | 0.741 µM | [0.09x] | 8.14 µM | 25.5 µM | 43.7 µM | 0.251 µM | [0.03x] |  |  |  |  |  |  | 
CC(=O)O[C@H]1C(=O)[C@@]2(C)[C@H]([C@H](OC(=O)c3ccccc3)[C@]3(O)C[C@H](OC(=O)[C@H](O)[C@@H](NC(=O)c4ccccc4)c4ccccc4)C(C)=C1C3(C)C)[C@]1(OC(C)=O)CO[C@@H]1C[C@@H]2O [Taxol, reference compound] |  |  | 1.27 µM |  | 0.0013 µM | 0.035 µM | 0.0013 µM | 0.429 µM | [330x] |  |  |  |  |  |  | 
COc1ccc(-c2c(CO)c(CO)c3n2Cc2ccccc2C3)cc1 [DA-1106, [2-Hydroxymethyl-3-(4-methoxyphenyl)-5,10-dihydropyrrolo[1,2-b]isoquinolin-1-yl]methanol] |  |  | 0.232 µM | [1.02x] | 0.228 µM | 1.94 µM | 1.03 µM | 0.111 µM | [0.49x] |  |  |  |  |  |  | 
COc1ccccc1-c1c(CO)c(CO)c2n1-c1ccccc1C2 [DA-1123, (2-Hydroxymethyl-3-(2-methoxyphenyl)-8H-3a-aza-cyclopenta[a]inden-1-yl)methanol] |  |  | 2.68 µM | [2.68x] | 1.01 µM | 8.64 µM | 13.4 µM | 1.9 µM | [1.89x] |  |  |  |  |  |  | 
CC[C@]1(O)C[C@@H]2CN(CCc3c([nH]c4ccccc34)[C@@](C(=O)OC)(c3cc4c(cc3OC)N(C)[C@H]3[C@@](O)(C(=O)OC)[C@H](OC(C)=O)[C@]5(CC)C=CCN6CC[C@]43[C@@H]65)C2)C1 [Vinblastine, reference compound] |  |  | 0.496 µM | [679.5x] | 0.00073 µM | 0.0029 µM | 0.0018 µM | 0.078 µM |  |  |  |  |  |  |  | 
CNC(=O)OCc1c(COC(=O)NC)c(-c2ccc(OC)cc2)n2c1Cc1cc(OC)ccc1-2 [DA-1131, methylcarbamic acid 6-methoxy-3-(4-methoxyphenyl)-2-methylcarbamoyl-oxymethyl-8H-3a-aza-cyclopenta[a]inden-1-ylmethyl ester] |  |  | 0.0962 µM | [1.55x] | 0.062 µM | 0.878 µM | 0.455 µM | 0.0639 µM | [1.03x] |  |  |  |  |  |  | 
CNC(=O)OCc1c(COC(=O)NC)c2n(c1C)Cc1ccccc1C2 [DA-1108, methylcarbamic acid 3-methyl-1-methylcarbamoyloxymethyl-5,10-dihydro-pyrrolo[1,2-b]isoquinolin-2-ylmethyl ester] |  |  | 0.111 µM | [0.87x] | 0.128 µM | 1.68 µM | 1.16 µM | 0.076 µM | [0.59x] |  |  |  |  |  |  | 
CNC(=O)OCc1c(COC(=O)NC)c(-c2ccccc2OC)n2c1Cc1ccccc1-2 [DA-1124, Methylcarbamic acid 3-(2-methoxyphenyl)-2-methylcarbamoyloxymethyl-8H-3a-aza-cyclopenta[a]inden-1-ylmethyl ester] |  |  | 0.36 µM | [2.65x] | 0.136 µM | 1.33 µM | 0.151 µM | 0.243 µM | [1.79x] | tumor total disappearance | low toxicity |  |  |  |  | 
CNC(=O)OCc1c(COC(=O)NC)c(-c2ccc(F)c(F)c2)n2c1Cc1ccccc1C2 [DA-1113, methylcarbamic acid 3-(3,4-difluorophenyl)-2-methylcarbamoyloxymethyl-5,10-dihydropyrrolo[1,2-b]isoquinolin-1-methyl ester] |  |  |  | [1.32x] |  |  |  |  | [1.06x] |  |  | 0.643 µM | 0.488 µM | 2.71 µM | 0.358 µM | 0.519 µM
OCc1c(CO)c(-c2ccc(Cl)cc2)n2c1Cc1ccccc1-2 [DA-1003, (3-(4-Chlorophenyl)-2-hydroxymethyl-8H-3a-aza-cyclopenta[a]inden-1-yl)methanol] |  |  | 4.22 µM | [1.00x] | 4.27 µM | 6.13 µM | 5.59 µM | 2.53 µM | [0.59x] |  |  |  |  |  |  | 
CNC(=O)OCc1c(COC(=O)NC)c(-c2ccc(F)c(F)c2)n2c1Cc1ccccc1-2 [DA-1027, Methylcarbamic acid 3-(3,4-diflourophenyl)-2-methylcarbamoyloxymethyl-8H-3a-aza-cyclopenta[a]inden-1-ylmethyl ester] |  |  |  | [1.0x] |  |  |  |  | [0.99x] |  |  | 0.644 µM | 0.639 µM | 7.84 µM | 0.878 µM | 0.632 µM
OCc1c(CO)c(-c2ccc(F)c(F)c2)n2c1Cc1ccccc1C2 [DA-1112, [3-(3,4-Difluorophenyl)-2-hydroxymethyl-5,10-dihydropyrrolo[1,2-b]isoquinolin-1-yl]methanol] |  |  | 0.745 µM | [0.66x] | 1.14 µM | 6.67 µM | 2.92 µM | 1.01 µM | [0.89x] |  |  |  |  |  |  | 
